This note sets out measurements from article PMC10107299, “Neutralizing the Impact of the Virulence Factor LecA from Pseudomonas aeruginosa on Human Cells with New Glycomimetic Inhibitors” (Angewandte Chemie (International Ed. in English), 2023).

The target in assay [1] is T1, LecA (Pseudomonas aeruginosa, UniProt Q05097).
T1 construct: made in house
The assay can be described thus: Competitive binding assay based on fluorescence polarization. How it is done: All synthesized galactosides were then evaluated for LecA inhibition using a competitive binding assay based on fluorescence polarization (Figure S1).[24]
Expression and purification of LecA as well as competitive binding by fluorescence polarization was performed as described by Joachim et al..[9] The assay was performed in TBS/Ca2+ buffer (20 mM Tris, 137 mM NaCl, 2.6 mM KCl at pH 7.4 supplemented with 1 mM CaCl2) in presence of 25% DMSO. Averages and standard deviations were calculated from at least three independent experiments. […]
RR OR In h i b i to r [µ M ]
R R In h i b i to r [µ M ] […]
R In h i b i to r [µ M ] 30 L2
30 F2 40 K2 In h i b i to r [µ M ] […]
In h i b i to r [µ M ] In h i b i to r [µ M ]
Figure S1: Evaluation of amide divalent LecA ligands in a competitive binding assay based on fluorescence […]
representative experiment is shown or each series. Averages and standard deviations from at least three independent titrations of triplicates each.
[…] Fluorescence polarization [mP] -1 0 1 2 3 0 1001010 Me-α-Gal pNO2-Ph-β-Gal 1000 Inhibitor [µM] Fluorescence polarization [mP])

Assay [2] deals with T1, LecA. The assay can be described thus: Direct binding to immobilized LecA by surface plasmon resonance (SPR). To be noted: for Relative potency r.p. (SPR): compared to respective monovalent compound in each series; for kon: SPR single-cycle kinetics, 25 °C, N=3 (I1 N=1). The procedure: K d values were oscillating with the number of methylene units present in the linker, presumably linked to the zig‐zag geometry of the hydrocarbon chain.
Expression and purification of LecA as well as competitive binding by fluorescence polarization was performed as described by Joachim et al..[9] […]
Surface plasmon resonance experiments were performed on a BIACORE X100 instrument (GE Healthcare) at 25 °C as described by Zahorska et. al..[8] Averages and standard deviations were calculated from three independent experiments. […]
Figure S3: SPR of divalent LecA ligands from benzene series. Sensorgrams obtained from SPR single-cycle kinetics experiments. Five different concentrations of each compound (0, 10, 50, 100, 200 nM) were sequentially injected to obtain the experimental sensorgrams (blue lines), which were then fitted by a 1:1 model (orange) on BIACORE evaluation software. […]
Figure S4: SPR of divalent LecA ligands from pyridine and sulfonated series. Sensorgrams obtained from SPR single-cycle kinetics experiments. Five different concentrations of each compound (0, 10, 50, 100, 200 nM) were sequentially injected to obtain the experimental sensorgrams (blue lines), which were then fitted by a 1:1 model (orange) on BIACORE evaluation software.
(also on this page, place not known: Response (RU)0 Response (RU)0 Response (RU) Response (RU) Response (RU) Response (RU) 030060090012001500) […]

Like-named read-outs stand apart in the source and are kept apart here.

T1 sequence (Q05097 whole entry): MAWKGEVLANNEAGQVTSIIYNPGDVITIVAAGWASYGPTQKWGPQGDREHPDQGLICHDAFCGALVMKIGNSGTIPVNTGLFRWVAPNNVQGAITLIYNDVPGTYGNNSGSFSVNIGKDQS

The compound `COc1ccc(NC(=O)/C=C/c2ccc(O[C@@H]3O[C@H](CO)[C@H](O)[C@H](O)[C@H]3O)cc2)cc1` [Compound A1] displayed an IC50 on LecA [1] of 18.8 ± 6.6 µM. Further, at LecA [2], the Kd stood at 5.21 ± 0.6 µM and the “Relative potency r.p. (SPR)” value is 1.
For `COc1ccc(NC(=O)CCc2ccc(O[C@@H]3O[C@H](CO)[C@H](O)[C@H](O)[C@H]3O)cc2)cc1` [Compound A2], in that order: 18.9 ± 5.5 µM, 5.38 ± 0.09 µM and 1.
Take `O=C(/C=C/c1ccc(O[C@@H]2O[C@H](CO)[C@H](O)[C@H](O)[C@H]2O)cc1)Nc1ccc(Oc2ccc(NC(=O)/C=C/c3ccc(O[C@@H]4O[C@H](CO)[C@H](O)[C@H](O)[C@H]4O)cc3)cc2)cc1` [Compound B1]: the IC50 on LecA [1] was determined as 6.6 ± 1.5 µM. For the same compound, at LecA [2], binding was put at a Kd of 0.0673 ± 0.0094 µM, the koff was determined as 0.00596 ± 0.00206 s⁻¹, the kon is given as 89 ± 29 x10^3/Ms and the “Relative potency r.p. (SPR)” value turned out to be 77.
For `O=C(CCc1ccc(O[C@@H]2O[C@H](CO)[C@H](O)[C@H](O)[C@H]2O)cc1)Nc1ccc(Oc2ccc(NC(=O)CCc3ccc(O[C@@H]4O[C@H](CO)[C@H](O)[C@H](O)[C@H]4O)cc3)cc2)cc1` [Compound B2], in that order: 3.6 ± 1.3 µM, 0.0221 ± 0.0003 µM, 0.00349 ± 8e-05 s⁻¹, 158 ± 5.7 x10^3/Ms and 244.
The corresponding values for `O=C(/C=C/c1ccc(O[C@@H]2O[C@H](CO)[C@H](O)[C@H](O)[C@H]2O)cc1)Nc1ccc(OCOc2ccc(NC(=O)/C=C/c3ccc(O[C@@H]4O[C@H](CO)[C@H](O)[C@H](O)[C@H]4O)cc3)cc2)cc1` [Compound C1] are 4.7 ± 2.6 µM, 0.0377 ± 0.011 µM, 0.00379 ± 0.00089 s⁻¹, 110 ± 52 x10^3/Ms and 138.
The corresponding values for `O=C(CCc1ccc(O[C@@H]2O[C@H](CO)[C@H](O)[C@H](O)[C@H]2O)cc1)Nc1ccc(OCOc2ccc(NC(=O)CCc3ccc(O[C@@H]4O[C@H](CO)[C@H](O)[C@H](O)[C@H]4O)cc3)cc2)cc1` [Compound C2] are 4.2 ± 1.7 µM, 0.0153 ± 0.0006 µM, 0.00462 ± 0.0002 s⁻¹, 303 ± 20 x10^3/Ms and 352.
On to `O=C(/C=C/c1ccc(O[C@@H]2O[C@H](CO)[C@H](O)[C@H](O)[C@H]2O)cc1)Nc1ccc(OCCCOc2ccc(NC(=O)/C=C/c3ccc(O[C@@H]4O[C@H](CO)[C@H](O)[C@H](O)[C@H]4O)cc3)cc2)cc1` [Compound E1], for which, at LecA [1], the IC50 is 4.5 ± 1.6 µM. Besides, on LecA [2], binding was put at a Kd of 0.156 ± 0.038 µM, the koff amounted to 0.00251 ± 0.00022 s⁻¹, the on-rate constant (kon) is given as 16.9 ± 5.2 x10^3/Ms and the “Relative potency r.p. (SPR)” value is on record as 33.
The corresponding values for `O=C(CCc1ccc(O[C@@H]2O[C@H](CO)[C@H](O)[C@H](O)[C@H]2O)cc1)Nc1ccc(OCCCOc2ccc(NC(=O)CCc3ccc(O[C@@H]4O[C@H](CO)[C@H](O)[C@H](O)[C@H]4O)cc3)cc2)cc1` [Compound E2] are 3.5 ± 1 µM, 0.0185 ± 0.0015 µM, 0.00345 ± 0.00013 s⁻¹, 187 ± 13 x10^3/Ms and 291.
Consider `O=C(/C=C/c1ccc(O[C@@H]2O[C@H](CO)[C@H](O)[C@H](O)[C@H]2O)cc1)Nc1ccc(OCCCCOc2ccc(NC(=O)/C=C/c3ccc(O[C@@H]4O[C@H](CO)[C@H](O)[C@H](O)[C@H]4O)cc3)cc2)cc1` [Compound F1], for which the IC50 at LecA [1] worked out at 7.9 ± 4.8 µM. Further, on LecA [2], the Kd worked out at 2.25 ± 0.3 µM, the koff was determined as 0.00388 ± 0.00043 s⁻¹, the kon is listed as 1.75 ± 0.3 x10^3/Ms and the “Relative potency r.p. (SPR)” value is reported as 2.
The corresponding values for `O=C(CCc1ccc(O[C@@H]2O[C@H](CO)[C@H](O)[C@H](O)[C@H]2O)cc1)Nc1ccc(OCCCCOc2ccc(NC(=O)CCc3ccc(O[C@@H]4O[C@H](CO)[C@H](O)[C@H](O)[C@H]4O)cc3)cc2)cc1` [Compound F2] are 4.4 ± 1.5 µM, 0.0231 ± 0.011 µM, 0.00366 ± 0.00042 s⁻¹, 175 ± 55 x10^3/Ms and 233.
Take `O=C(/C=C/c1ccc(O[C@@H]2O[C@H](CO)[C@H](O)[C@H](O)[C@H]2O)cc1)Nc1ccc(OCCCOc2ccc(NC(=O)/C=C/c3ccc(O[C@@H]4O[C@H](CO)[C@H](O)[C@H](O)[C@H]4O)cc3)cn2)nc1` [Compound I1]: the IC50 on LecA [1] was 6.6 ± 4 µM. Further, on LecA [2], the affinity, expressed as Kd, was 0.0402 µM; the koff is 0.00227 s⁻¹; the kon was determined as 68200 M⁻¹ s⁻¹; the “Relative potency r.p. (SPR)” value is 74.
Consider `O=[N+]([O-])c1ccc(O[C@@H]2O[C@H](CO)[C@H](O)[C@H](O)[C@H]2O)cc1` [pNO2-Ph-β-Gal, reference compound], for which the IC50 at LecA [1] (TBS/Ca2+ buffer, 25% DMSO, divalent ligands at lower assay limit, read-out: IC50 (LecA competitive binding, fluorescence polarization)) is 39.8 ± 12 µM.
